# US7662832B2, “Pyrrolo[2,3-c]pyridine derivatives and processes for the preparation thereof” (priority 2004, dated 2010)
# Structures can show the parent of a compound that is named as a salt.
# Target: Proton Pump (H^+/K^+-ATPase) (Sus scrofa, UniProt P19156)
# Assay: Inhibitory effects on proton pump (H^+/K^+-ATPase) activity
# Type: biochemical
# Conditions: hog gastric vesicles; K^+ stimulated H^+/K^+-ATPase activity; 30 minutes at 37° C.
# Chain of Proton Pump (H^+/K^+-ATPase) (P19156 2-1034 limits assumed): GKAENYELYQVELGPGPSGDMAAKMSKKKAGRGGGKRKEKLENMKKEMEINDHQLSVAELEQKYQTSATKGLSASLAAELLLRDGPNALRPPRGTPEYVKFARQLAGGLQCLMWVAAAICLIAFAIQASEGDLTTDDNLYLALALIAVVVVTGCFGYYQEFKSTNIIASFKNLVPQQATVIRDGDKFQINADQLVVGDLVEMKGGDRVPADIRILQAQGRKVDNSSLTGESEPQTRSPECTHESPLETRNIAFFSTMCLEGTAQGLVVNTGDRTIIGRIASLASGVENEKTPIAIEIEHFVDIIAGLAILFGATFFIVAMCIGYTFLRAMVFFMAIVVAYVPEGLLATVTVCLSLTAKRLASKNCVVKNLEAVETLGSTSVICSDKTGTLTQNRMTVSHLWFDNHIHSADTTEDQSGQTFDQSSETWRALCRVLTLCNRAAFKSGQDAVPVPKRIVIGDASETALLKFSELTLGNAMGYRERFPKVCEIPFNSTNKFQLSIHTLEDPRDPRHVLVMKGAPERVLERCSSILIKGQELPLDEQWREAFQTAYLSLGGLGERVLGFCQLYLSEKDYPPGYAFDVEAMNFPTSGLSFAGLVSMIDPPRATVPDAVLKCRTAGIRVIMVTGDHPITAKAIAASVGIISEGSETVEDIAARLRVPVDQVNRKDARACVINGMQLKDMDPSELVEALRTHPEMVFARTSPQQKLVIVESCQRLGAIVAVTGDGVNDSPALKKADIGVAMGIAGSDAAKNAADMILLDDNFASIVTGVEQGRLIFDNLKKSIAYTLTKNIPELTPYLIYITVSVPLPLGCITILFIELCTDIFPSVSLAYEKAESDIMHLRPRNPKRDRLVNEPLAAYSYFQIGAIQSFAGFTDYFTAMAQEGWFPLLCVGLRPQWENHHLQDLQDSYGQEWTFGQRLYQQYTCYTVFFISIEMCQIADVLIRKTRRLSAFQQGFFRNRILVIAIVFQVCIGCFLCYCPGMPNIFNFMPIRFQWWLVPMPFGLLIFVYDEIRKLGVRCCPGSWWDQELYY
# Chain of Proton Pump (H^+/K^+-ATPase) (P18434 whole entry partner): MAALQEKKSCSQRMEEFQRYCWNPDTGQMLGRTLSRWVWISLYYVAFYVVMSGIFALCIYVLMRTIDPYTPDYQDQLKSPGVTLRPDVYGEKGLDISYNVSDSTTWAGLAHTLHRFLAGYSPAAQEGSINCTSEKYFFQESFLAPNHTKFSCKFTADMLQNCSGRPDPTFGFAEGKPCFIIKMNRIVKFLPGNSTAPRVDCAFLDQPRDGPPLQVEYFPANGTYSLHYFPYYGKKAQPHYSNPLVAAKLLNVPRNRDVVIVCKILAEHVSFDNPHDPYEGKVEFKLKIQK
row,IC50 [nM],SMILES
1,499,"CCc1[nH]c2c(N3CCc4ccccc4C3)nccc2c1C [Example 591, 2-ethyl-3-methyl-7-(1,2,3,4-tetrahydroisoquinolin-2-yl)-1H-pyrrolo[2,3-c]pyridine]"
2,287,"Cc1c(C)n(Cc2cccc(Cl)c2)c2c(N3CCc4ccccc4C3)nc(N)cc12 [Example 845, 1-(3-chlorobenzyl)-7-(3,4-dihydro-1H-isoquinolin-2-yl)-2,3-dimethyl-1H-pyrrolo[2,3-c]pyridin-5-amine hydrochloride]"
3,403,"Cc1[nH]c2c(N3CCc4ccccc4C3)nc(C=O)cc2c1C [Example 862, 7-(3,4-dihydro-1H-isoquinolin-2-yl)-2,3-dimethyl-1H-pyrrolo[2,3-c]pyridin-5-carbaldehyde]"
4,39,"CCNCc1cc2c(C)c(C)n(Cc3cccc(F)c3)c2c(N2CCc3ccccc3C2)n1 [Example 868, N-[7-(3,4-dihydro-1H-isoquinolin-2-yl)-1-(3-fluorobenzyl)-2,3-dimethyl-1H-pyrrolo[2,3-c]pyridin-5-ylmethyl]-ethylamine hydrochloride]"
5,31,"CCn1c(C)c(C)c2cc(C(=O)N3CCC(CO)CC3)nc(N3CCc4ccccc4C3)c21 [Example 805, [7-(3,4-dihydro-1H-isoquinolin-2-yl)-1-ethyl-2,3-dimethyl-1H-pyrrolo[2,3-c]pyridin-5-yl]-(4-hydroxymethylpiperidin-1-yl)-methanone hydrochloride]"
6,330,"Cc1c(C)n(Cc2cccc(F)c2)c2c(N3CCc4cc(F)ccc4C3C)nccc12 (stereo not shown) [Example 565, 6-fluoro-2-[1-(3-fluorobenzyl)-2,3-dimethyl-1H-pyrrolo[2,3-c]pyridin-7-yl]-1-methyl-1,2,3,4-tetrahydroisoquinoline hydrochloride]"
7,257,"Cc1c(C)n(Cc2ccccc2)c2c(N3CCc4ccccc4C3)nc(C(=O)n3ccnc3)cc12 [Example 839, [1-benzyl-7-(3,4-dihydro-1H-isoquinolin-2-yl)-2,3-dimethyl-1H-pyrrolo[2,3-c]pyridin-5-yl]-(imidazol-1-yl)-methanone hydrochloride]"
8,173,"C=CCn1c(C)c(C)c2ccnc(-c3ccc(Cl)cc3)c21 [Example 300, 1-allyl-7-(4-chlorophenyl)-2,3-dimethyl-1H-pyrrolo[2,3-c]pyridine hydrochloride]"
9,270,"C=Cc1ccc(-c2nccc3c(C)c(C)n(Cc4ccc5ccccc5c4)c23)cc1 [Example 257, 2,3-dimethyl-1-(naphthalen-2-ylmethyl)-7-(4-vinylphenyl)-1H-pyrrolo[2,3-c]pyridine hydrochloride]"
10,31,"Cc1c(C)n(Cc2ccccc2)c2c(NCc3ccc(F)cc3)nc(C(=O)N3CCN(C)CC3)cc12 [Example 906, [1-benzyl-7-(4-fluorobenzylamino)-2,3-dimethyl-1H-pyrrolo[2,3-c]pyridin-5-yl]-(4-methylpiperazin-1-yl)-methanone hydrochloride]"
11,350,"Cc1[nH]c2c(N3CCc4ccc(F)cc4C3C)nccc2c1C (stereo not shown) [Example 541, 7-fluoro-2-(2,3-dimethyl-1H-pyrrolo[2,3-c]pyridin-7-yl)-1-methyl-1,2,3,4-tetrahydroisoquinoline hydrochloride]"
12,65,"Cc1c(CO)c2ccnc(N3CCc4ccccc4C3)c2n1Cc1cccc(F)c1 [Example 617, [7-(3,4-dihydro-1H-isoquinolin-2-yl)-1-(3-fluorobenzyl)-2-methyl-1H-pyrrolo[2,3-c]pyridin-3-yl]-methanol hydrochloride]"
13,1.6,"C=CCn1c(C)c(C)c2cc(C(=O)N3CCOCC3)nc(N3CCc4ccccc4C3)c21 [Example 777, [1-allyl-7-(3,4-dihydro-1H-isoquinolin-2-yl)-2,3-dimethyl-1H-pyrrolo[2,3-c]pyridin-5-yl]-(morpholin-4-yl)-methanone hydrochloride]"
14,13,"CCn1c(C)c(C)c2cc(C(=O)N3CCC(O)CC3)nc(N3CCc4ccccc4C3)c21 [Example 806, [7-(3,4-dihydro-1H-isoquinolin-2-yl)-1-ethyl-2,3-dimethyl-1H-pyrrolo[2,3-c]pyridin-5-yl]-(4-hydroxypiperidin-1-yl)-methanone hydrochloride]"
15,292,"Cc1ccc(-c2nccc3c(C)c(C)n(Cc4ccccc4)c23)cc1 [Example 281, 1-benzyl-2,3-dimethyl-7-(p-tolyl)-1H-pyrrolo[2,3-c]pyridine hydrochloride]"
16,190,"CC(C)=CCn1c(C)c(C)c2ccnc(N3CCc4ccc(F)cc4C3C)c21 (stereo not shown) [Example 545, 2-[2,3-dimethyl-1-(3-methylbut-2-enyl)-1H-pyrrolo[2,3-c]pyridin-7-yl]-7-fluoro-1-methyl-1,2,3,4-tetrahydroisoquinoline hydrochloride]"

row,IC50 [nM],SMILES
1,158,"CCCn1c(C)c(C)c2cc(C(=O)N3CCCCC3)nc(N3CCc4ccccc4C3)c21 [Example 801, [7-(3,4-dihydro-1H-isoquinolin-2-yl)-2,3-dimethyl-1-propyl-1H-pyrrolo[2,3-c]pyridin-5-yl]-(piperidin-1-yl)-methanone hydrochloride]"
2,316,"C=CCn1c(C)c(C)c2cc(C(=O)NCc3cccc(Cl)c3)nc(N3CCc4ccccc4C3)c21 [Example 758, 1-allyl-7-(3,4-dihydro-1H-isoquinolin-2-yl)-2,3-dimethyl-N-(3-chlorobenzyl)-1H-pyrrolo[2,3-c]pyridin-5-carboxamide hydrochloride]"
3,129,"Cc1c(C)n(Cc2cccc(Cl)c2)c2c(N3CCc4ccccc4C3)nc(C(=O)N3CCN(C)CC3)cc12 [Example 836, [1-(3-chlorobenzyl)-7-(3,4-dihydro-1H-isoquinolin-2-yl)-2,3-dimethyl-1H-pyrrolo[2,3-c]pyridin-5-yl]-(4-methylpiperazin-1-yl)-methanone hydrochloride]"
4,220,"Cc1cccc(Cn2c(C)c(C)c3cc(C(=O)N4CCCCC4)nc(N4CCc5ccccc5C4)c32)c1 [Example 798, [7-(3,4-dihydro-1H-isoquinolin-2-yl)-2,3-dimethyl-1-(3-methylbenzyl)-1H-pyrrolo[2,3-c]pyridin-5-yl]-(piperidin-1-yl)-methanone hydrochloride]"
5,90,"C=Cc1ccc(-c2nccc3c(C)c(C)n(Cc4ccc(C)cc4)c23)cc1 [Example 244, 2,3-dimethyl-1-(4-methylbenzyl)-7-(4-vinylphenyl)-1H-pyrrolo[2,3-c]pyridine hydrochloride]"
6,50,"C=CCn1c(C)c(C)c2cc(CN3CCN(C)CC3)nc(N3CCc4ccccc4C3)c21 [Example 879, 2-[1-allyl-2,3-dimethyl-5-(4-methylpiperazin-1-ylmethyl)-1H-pyrrolo[2,3-c]pyridin-7-yl]-1,2,3,4-tetrahydroisoquinoline hydrochloride]"
7,110,"CCn1c(C)c(C)c2ccnc(N3CCc4ccc(F)cc4C3C)c21 (stereo not shown) [Example 543, 2-(1-ethyl-2,3-dimethyl-1H-pyrrolo[2,3-c]pyridin-7-yl)-7-fluoro-1-methyl-1,2,3,4-tetrahydroisoquinoline hydrochloride]"
8,290,"CCC1c2ccccc2CCN1c1nccc2c(C)c(C)n(CC=C(C)C)c12 (stereo not shown) [Example 578, 2-[2,3-dimethyl-1-(3-methylbut-2-enyl)-1H-pyrrolo[2,3-c]pyridin-7-yl]-1-ethyl-1,2,3,4-tetrahydroisoquinoline hydrochloride]"
9,62,"Cc1c(C)n(Cc2cccc(F)c2)c2c(N3CCc4ccccc4C3)nc(C(=O)N3CCOCC3)cc12 [Example 779, [7-(3,4-dihydro-1H-isoquinolin-2-yl)-1-(3-fluorobenzyl)-2,3-dimethyl-1H-pyrrolo[2,3-c]pyridin-5-yl]-(morpholin-4-yl)-methanone hydrochloride]"
10,310,"COCCn1c(C)c(C)c2ccnc(NCc3ccccc3C)c21 [Example 213, 1-(2-methoxyethyl)-2,3-dimethyl-7-(2-methylbenzylamino)-1H-pyrrolo[2,3-c]pyridine hydrochloride]"
11,43,"Cc1c(C)n(Cc2cccc(F)c2)c2c(N3CCc4ccccc4C3)nc(CN3CCOCC3)cc12 [Example 872, 2-[1-(3-fluorobenzyl)-2,3-dimethyl-5-(morpholin-4-ylmethyl)-1H-pyrrolo[2,3-c]pyridin-7-yl]-1,2,3,4-tetrahydroisoquinoline hydrochloride]"
12,21,"Cc1c(C)n(Cc2ccccc2)c2c(N3CCc4ccccc4C3)nc(C(=O)N3CCNCC3)cc12 [Example 812, [1-benzyl-7-(3,4-dihydro-1H-isoquinolin-2-yl)-2,3-dimethyl-1H-pyrrolo[2,3-c]pyridin-5-yl]-(piperazin-1-yl)-methanone hydrochloride]"
13,22,"C=CCn1c(C)c(C)c2ccnc(N3CCc4ccc(F)cc4C3C)c21 (stereo not shown) [Example 544, 2-(1-allyl-2,3-dimethyl-1H-pyrrolo[2,3-c]pyridin-7-yl)-7-fluoro-1-methyl-1,2,3,4-tetrahydroisoquinoline hydrochloride]"
14,89,"C#CCn1c(C)c(C)c2ccnc(-c3ccc4ccccc4c3)c21 [Example 408, 2,3-dimethyl-7-(naphthalen-2-yl)-1-(prop-2-ynyl)-1H-pyrrolo[2,3-c]pyridine hydrochloride]"
15,370,"CCC1c2ccccc2CCN1c1nccc2c(C)c(C)n(CCOC)c12 (stereo not shown) [Example 585, 1-ethyl-2-[1-(2-methoxyethyl)-2,3-dimethyl-1H-pyrrolo[2,3-c]pyridin-7-yl]-1,2,3,4-tetrahydroisoquinoline hydrochloride]"
16,240,"Cc1c(C)n(Cc2cccc(F)c2)c2c(N3CCc4ccccc4C3)nc(Cl)cc12 [Example 657, 5-chloro-[1-(3-fluorobenzyl)-7-(1,2,3,4-tetrahydroisoquinolin-2-yl)]-2,3-dimethyl-1H-pyrrolo[2,3-c]pyridine hydrochloride]"

row,SMILES,IC50 [nM]
1,"C=CCn1c(C)c(C)c2ccnc(N3CCc4ccccc4C3)c21 [Example 493, 1-allyl-7-(1,2,3,4-tetrahydroisoquinolin-2-yl)-2,3-dimethyl-1H-pyrrolo[2,3-c]pyridine benzenesulfonate]",4
2,"C=CCn1c(C)c(C)c2ccnc(N3CCc4ccccc4C3)c21 [Example 486, 1-allyl-7-(1,2,3,4-tetrahydroisoquinolin-2-yl)-2,3-dimethyl-1H-pyrrolo[2,3-c]pyridine tartrate]",8
